Laboratory results reported in patent US10981926B2 (Janssen Pharmaceutica NV, priority 2016, dated 2021).
pIC50, pKi: −log10 of the molar value. Like-named read-outs stand apart in the source and are kept apart here.

Experiments:
AR (human) = AR (human) (Homo sapiens (Human), UniProt P10275, T878A); assay: Radioligand binding to AR; details: [3H]methyltrienolone, LNCaP cells (cytosol)
Method: Radioligand binding assays were performed with the cell extracts and ligands as detailed below. Complete methodology is contained within the cited publications. Kd values were determined by Non-Specific Incubation Detection Method.
AR (human) (agonist radioligand) LNCaP cells (cytosol)
[^3H]methyltrienolone 1 nM 0.8 nM mibolerone (1 μM) 24 h 4° C. Scintillation counting.
The results are expressed as a percent of control specific binding measured specific binding*100 control specific binding and as a percent inhibition of control specific binding 100-(measured specific binding*100) control specific binding obtained in the presence of compound.
The IC50 values (concentration causing a half-maximal inhibition of control specific binding) and Hill coefficients (nH) were determined by non-linear regression analysis of the competition curves generated with mean replicate values using Hill equation curve fitting. Y=D+[A−D] 1+(C/C50)nH
wherein Y=specific binding, A=left asymptote of the curve, D=right asymptote of the curve, C=compound concentration, C50=IC50, and nH=slope factor. […]
The inhibition constants (Ki) were calculated using the Cheng Prusoff equation: Ki=[…]
Radioligand binding inhibition and affinity calculations were determined using [^3H]-methyltrienolone, [^3H]-dexamethasone and [^3H]-estradiol for AR, GR and ER, respectively. […]

[1] = molecular target: F876L mutant Androgen Receptor (AR-F876L) (Homo sapiens (Human), UniProt P10275, F877L); assay: LNCaP-AR-F876L AG reporter assay (agonist mode); type: cell-based
AR L701H = AR L701H (Homo sapiens, UniProt P10275, L702H); assay: Luciferase Transcriptional Reporter Assay, AR L701H (HepG2); type: cell-based
Method: HepG2 cells were maintained in EMEM supplemented with 10% FBS. One day before transfection, the media was changed to EMEM with 10% CSS. T-150 flasks were transiently transfected using 120 μL Lipofectamine 2000 (Life Technologies), 30 μg mutant cDNA (expression vector)—mutant cDNA tested were L701H, T877A, W741C and H874Y—and 40 μg 4×ARE-Luciferase (reporter vector) in OptiMEM and the flasks were incubated overnight. Cells were then trypsinized, counted and resuspended at 500,000 cells/mL. For agonist mode, the compounds of Formula (I) were serially diluted and 50 μL of the compound was added per well. 50 μL of the cells were added to each well and incubated for 48 hours. For antagonist mode, a final concentration of 90 pM R1881 was added to the diluted compounds and incubated for 48 hours. The plates were then assayed using SteadyGlo and read on the Envision. Percent Stimulation and Inhibition were determined and analyzed using GraphPad Prism.
F876L agonism was evident at 3 and 10 μM (5%) but zero at 30 μM. The antagonistic (IC50) and agonistic (EC50) values for each of the AR cDNA used in the reporter assays are summarized. All values are calculated relative to the activity of R1881 induced androgen receptor activity (n≥3). Also indicated are the maximal inhibition and extent of induction of androgen dependent signaling (%).

[2] = molecular target: AR-FL and AR-V7 in 22RV1 cells; assay: 22RV1 AR-FL and AR-V7 Transcriptional Reporter Assay; type: cell-based
Method: (§1) 22RV1 were obtained from ATCC and cultured in RPMI 1640 supplemented with 10% FBS. Cells were seeded at a density of 15,000 cells/well into Greiner 384-well, white, optical-bottom plates in RPMI 1640 phenol red-free medium with 1% charcoal stripped FBS and incubated for 2 days at 37° C. The cells were treated with a compound or Formula (I) in 12-point dose-response, both in the presence and absence of 0.1 nM R1881 for 18-24 hrs. At the end of assay, Steady-Glo reagent (Promega) was added to each well according to the manufacturer's instructions, placed on a shaker at 300 rpm for 10 min, and luminescence recorded using an EnVision plate reader (Perkin Elmer). The data was exported to GraphPad Prism and analyzed using the Four Parameter equation to obtain IC50 values for each compound. Each compound was tested in at least three independent experiments.

22RV1 cells = assay: 22RV1 Proliferation Assay; type: cell-based; details: Homo sapiens, 120 h
Method: as §1, with “of 4,500” for “of 15,000”, “compound of” for “compound or”, “12-point dose-response” for “12-point dose-response,”, “for 5 days. To determine cell viability, CellTiter-Glo” for “for 18-24 hrs. At the end of assay, Steady-Glo”

AR L701H, sequence (P10275 whole entry L702H): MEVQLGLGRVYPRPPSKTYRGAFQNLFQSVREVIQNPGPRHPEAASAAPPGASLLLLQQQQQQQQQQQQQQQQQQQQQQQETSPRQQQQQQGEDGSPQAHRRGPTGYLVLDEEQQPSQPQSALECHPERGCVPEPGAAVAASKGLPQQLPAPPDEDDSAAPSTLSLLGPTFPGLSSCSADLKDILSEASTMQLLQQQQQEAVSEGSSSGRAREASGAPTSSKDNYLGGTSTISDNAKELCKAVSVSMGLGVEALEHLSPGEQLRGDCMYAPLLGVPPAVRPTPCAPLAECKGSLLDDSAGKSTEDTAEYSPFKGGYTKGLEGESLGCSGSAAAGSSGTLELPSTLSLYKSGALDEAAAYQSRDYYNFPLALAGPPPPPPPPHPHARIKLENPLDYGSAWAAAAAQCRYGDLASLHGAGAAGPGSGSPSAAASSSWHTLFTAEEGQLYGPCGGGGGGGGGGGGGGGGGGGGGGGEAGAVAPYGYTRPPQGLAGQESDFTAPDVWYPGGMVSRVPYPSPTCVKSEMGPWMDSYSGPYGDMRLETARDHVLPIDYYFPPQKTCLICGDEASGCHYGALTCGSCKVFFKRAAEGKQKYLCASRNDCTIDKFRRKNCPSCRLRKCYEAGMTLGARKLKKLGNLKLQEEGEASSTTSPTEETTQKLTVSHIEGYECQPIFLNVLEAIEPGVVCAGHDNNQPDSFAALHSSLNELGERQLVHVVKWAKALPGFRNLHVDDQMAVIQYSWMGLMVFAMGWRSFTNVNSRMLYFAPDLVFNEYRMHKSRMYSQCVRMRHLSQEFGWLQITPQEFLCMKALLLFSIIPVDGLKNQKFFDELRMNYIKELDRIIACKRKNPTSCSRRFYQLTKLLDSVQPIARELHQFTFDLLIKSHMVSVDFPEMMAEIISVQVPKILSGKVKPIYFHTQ
AR (human), sequence (P10275 whole entry T878A): as the sequence (P10275 whole entry L702H) above, with H702L, T878A counted along it
F876L mutant Androgen Receptor (AR-F876L), sequence (P10275 whole entry F877L): as the sequence (P10275 whole entry L702H) above, with H702L, F877L counted along it

pIC50 (AR (human)): 8.16 | pKi (AR (human); Cheng Prusoff): 8.52 | EC50 ([1]; agonist mode, pEC50 = −Log10(EC50 in Molar), read-out: LNCaP-AR-F876L AG pEC50 (converted)): > 15.1 µM | LNCaP-AR-F876L AG MAX % Stim ([1]; maximum % stimulation (agonist response) over the tested concentration range): 0.1% | Emax (AR L701H; HepG2, agonist mode, relative to R1881, read-out: Agonism % Emax, AR construct L701H): 0% | pIC50 (AR L701H; HepG2, antagonist mode, 90 pM R1881, 48 hours, read-out: Antagonism IC50, AR construct L701H): 5.00 | Emax (AR L701H; HepG2, antagonist mode, maximal inhibition, read-out: Antagonism % Emax, AR construct L701H): 90% | pIC50 ([2]; 22RV1, in the absence of 0.1 nM R1881, read-out: IC50, agonist mode): 3.92 | pIC50 ([2]; 22RV1, in the presence of 0.1 nM R1881, read-out: IC50, antagonist mode): 6.46 | pIC50 (22RV1 cells; 22RV1, in the absence of 0.1 nM R1881, 5 days, read-out: IC50, agonist mode): 3.31 | pIC50 (22RV1 cells; 22RV1, in the presence of 0.1 nM R1881, 5 days, read-out: IC50, antagonist mode): 3.59
Structure (SMILES): N#Cc1ncc(N2C(=O)C3(CCC3)N(c3ccc(OC4CCNCC4)nc3)C2=S)cc1C(F)(F)F [Cpd 43, 5-[5-oxo-8-[6-(4-piperidyloxy)-3-pyridyl]-7-thioxo-6,8-diazaspiro[3.4]octan-6-yl]-3-(trifluoromethyl)pyridine-2-carbonitrile]
